According to the CheMixHub viscosity set:

Test: xn = mol fraction of the nth substance listed

COC(C)=O + Cc1cccc(C)c1
viscosity [mPa·s], 101 kPa
Conditions	298.15 K	308.15 K
x1 = 0.0409	0.565	0.515
x1 = 0.151	0.524	0.484
x1 = 0.2488	0.493	0.46
x1 = 0.3516	0.466	0.438
x1 = 0.4423	0.446	0.421
x1 = 0.4928	0.436	0.412
x1 = 0.5514	0.426	0.403
x1 = 0.6505	0.412	0.388
x1 = 0.7498	0.4	0.376
x1 = 0.8506	0.392	0.364
x1 = 0.9429	0.386	0.356

c1ccc2ncccc2c1 + Cc1cccc(O)c1
viscosity [mPa·s], 101.3 kPa
Conditions	x1 = 0.0998	x1 = 0.198	x1 = 0.3012	x1 = 0.3984	x1 = 0.4984	x1 = 0.5985	x1 = 0.6965	x1 = 0.798	x1 = 0.8948
298 K	15.26	19.93	25.3	22.87	15.79	11.02	7.376	5.594	4.358
303 K	11.51	15.03	19.24	17.85	12.71	8.925	6.266	4.872	3.761
308 K	8.895	11.46	15.1	14.05	9.986	7.269	5.301	4.223	3.291
313 K	6.912	8.917	11.94	11.42	8.111	6.172	4.512	3.686	2.959
318 K	5.586	7.128	9.595	9.188	6.608	5.184	3.835	3.204	2.62

C1CCCCC1 + Cc1ccccc1
viscosity [mPa·s]
Conditions	101 kPa	101.33 kPa
293.95 K, x1 = 0.1	–	0.6126
294.15 K, x1 = 0.5	–	0.6762
294.25 K, x1 = 0.2	–	0.6123
294.45 K, x1 = 0.3	–	0.6228
294.75 K, x1 = 0.4	–	0.6357
294.75 K, x1 = 0.6	–	0.6922
296.15 K, x1 = 0.8	–	0.778
303 K, x2 = 0.04	0.7881	–
303 K, x2 = 0.081	0.7486	–
303 K, x2 = 0.162	0.6926	–
303 K, x2 = 0.324	0.6161	–
303 K, x2 = 0.484	0.5705	–
303 K, x2 = 0.644	0.5419	–
303 K, x2 = 0.803	0.5252	–
303 K, x2 = 0.882	0.5268	–
303 K, x2 = 0.96	0.5298	–
303.15 K, x1 = 0.0958	0.5395	–
303.15 K, x1 = 0.0999	0.5263	–
303.15 K, x1 = 0.2	0.5319	0.5546
303.15 K, x1 = 0.2959	0.5409	–
303.15 K, x1 = 0.4126	0.5566	–
303.15 K, x1 = 0.4964	0.5726	–
303.15 K, x1 = 0.6005	0.6005	–
303.15 K, x1 = 0.7032	0.6367	–
303.15 K, x1 = 0.7978	0.6827	–
303.15 K, x1 = 0.8946	0.7448	–
303.15 K, x2 = 0.0999	0.7364	–
303.15 K, x2 = 0.2003	0.6714	–
303.15 K, x2 = 0.3	0.6226	–
303.15 K, x2 = 0.3999	0.5886	–
303.15 K, x2 = 0.5	0.5635	–
303.15 K, x2 = 0.6	0.5481	–
303.15 K, x2 = 0.6999	0.5352	–
303.15 K, x2 = 0.7998	0.5283	–
303.15 K, x2 = 0.9	0.5256	–
303.45 K, x1 = 0.1	–	0.5477
303.45 K, x1 = 0.3	–	0.5618
303.45 K, x1 = 0.8	–	0.7003
303.75 K, x1 = 0.5	–	0.5991
303.95 K, x1 = 0.4	–	0.5688
304.25 K, x1 = 0.6	–	0.6143
308.15 K, x2 = 0.0999	0.6829	–
308.15 K, x2 = 0.2003	0.6256	–
308.15 K, x2 = 0.3	0.5822	–
308.15 K, x2 = 0.3999	0.5527	–
308.15 K, x2 = 0.5	0.5308	–
308.15 K, x2 = 0.6	0.5152	–
308.15 K, x2 = 0.6999	0.5054	–
308.15 K, x2 = 0.7998	0.4991	–
308.15 K, x2 = 0.9	0.497	–
312.45 K, x1 = 0.1	–	0.4994
312.45 K, x1 = 0.3	–	0.51
312.95 K, x1 = 0.8	–	0.6059
313.15 K, x1 = 0.2	–	0.4976
313.15 K, x1 = 0.4	–	0.5137
313.15 K, x1 = 0.4974	0.5095	–
313.15 K, x2 = 0.0999	0.6359	–
313.15 K, x2 = 0.2003	0.585	–
313.15 K, x2 = 0.3	0.5466	–
313.15 K, x2 = 0.3999	0.5206	–
313.15 K, x2 = 0.5	0.4996	–
313.15 K, x2 = 0.7998	0.4731	–
313.15 K, x2 = 0.9	0.4707	–
313.45 K, x1 = 0.5	–	0.5412
313.65 K, x1 = 0.6	–	0.5482
318.15 K, x2 = 0.0999	0.5914	–
318.15 K, x2 = 0.2003	0.548	–
318.15 K, x2 = 0.3	0.5136	–
318.15 K, x2 = 0.3999	0.4913	–
318.15 K, x2 = 0.5	0.4722	–
318.15 K, x2 = 0.6	0.4614	–
318.15 K, x2 = 0.6999	0.4531	–
318.15 K, x2 = 0.7998	0.449	–
318.15 K, x2 = 0.9	0.447	–
322.75 K, x1 = 0.8	–	0.5481
323.15 K, x1 = 0.5989	0.4735	–
323.15 K, x2 = 0.0999	0.5534	–
323.15 K, x2 = 0.2003	0.5139	–
323.15 K, x2 = 0.3	0.4839	–
323.15 K, x2 = 0.3999	0.4632	–
323.15 K, x2 = 0.5	0.4466	–
323.15 K, x2 = 0.6	0.4383	–
323.15 K, x2 = 0.6999	0.4304	–
323.15 K, x2 = 0.7998	0.4264	–
323.15 K, x2 = 0.9	0.4243	–
